For seven compounds, MIC and hemolysis results are on record in ChEMBL document CHEMBL5537158, “Polymyxins with Potent Antibacterial Activity against Colistin-Resistant Pathogens: Fine-Tuning Hydrophobicity with Unnatural Amino Acids” (J Med Chem, 2024).

One data set concerns Klebsiella pneumoniae. Description: Antimicrobial activity against Klebsiella pneumoniae ATCC 13883 assessed as bacterial growth inhibition incubated for 20 hrs by broth microdilution method. In kind it is functional.
Data set [1] can be described thus: Hemolytic activity in human RBC at 400 ug/ml after 1 hr. Type of data set: toxicity, cell-based, Erythrocyte. The settings on record: red blood cells (erythrocytes), at 400 µg/mL, read-out: Activity.
For data set [2], the system named is Acinetobacter baumannii. Put plainly: Antimicrobial activity against Acinetobacter baumannii ATCC 19606 assessed as bacterial growth inhibition incubated for 20 hrs by broth microdilution method. In kind it is functional. A general note: Dilution methods test growth across graded concentrations, often in twofold steps.
Data set [3] concerns Escherichia coli. Description: Antibacterial activity against Escherichia coli ATCC 25922 assessed as bacterial growth inhibition incubated for 20 hrs by broth microdilution method. In kind it is functional.
Data set [4] deals with Escherichia coli. Put plainly: Antimicrobial activity against […] Escherichia coli harboring mcr-1 assessed as bacterial growth inhibition incubated for 20 hrs by broth microdilution method. Type of data set: functional.
The test system of data set [5] is Pseudomonas aeruginosa. Description: Antimicrobial activity against Pseudomonas aeruginosa PAO1 assessed as bacterial growth inhibition incubated for 20 hrs by broth microdilution method. Type of data set: functional.
In data set [6] the test system is Pseudomonas aeruginosa. Put plainly: Antimicrobial activity against colistin resistant Pseudomonas aeruginosa 7197/19 assessed as bacterial growth inhibition incubated for 20 hrs by broth microdilution method. In kind it is functional.
Data set [7] concerns Acinetobacter baumannii. Put plainly: Antimicrobial activity against colistin resistant Acinetobacter baumannii ATCC 3658/17 assessed as bacterial growth inhibition incubated for 20 hrs by broth microdilution method. Type of data set: functional.

≈ marks a conversion by molar mass, not a printed value. Positions of bridges follow the written chain, without caps; N, C: chain ends. Non-standard residues stand in square brackets, D forms with d. Residues, ends and D or L forms follow the SMILES beside them. *: point of attachment. d(hhPhe) = N[C@H](CCCc1ccccc1)C(=O)O; d(hPhe) = N[C@H](CCc1ccccc1)C(=O)O; d(hLeu) = CC(C)CC[C@@H](N)C(=O)O; Octanoyl = CCCCCCCC(=O)*; Dab = NCC[C@H](N)C(=O)O

With `CC(=O)N[C@H](Cc1ccc(Cl)cc1)C(=O)N[C@@H](CCN)C(=O)N[C@H](C(=O)N[C@@H](CCN)C(=O)N[C@H]1CCNC(=O)[C@H]([C@@H](C)O)NC(=O)[C@H](CCN)NC(=O)[C@H](CCN)NC(=O)[C@H](CC(C)C)NC(=O)[C@@H](Cc2ccccc2)NC(=O)[C@@H](CCN)NC1=O)[C@H](C)O`, the MIC in the data set on Klebsiella pneumoniae amounted to 16 µg/mL (≈ 12.4 µM); with Acinetobacter baumannii [2], 0.5 µg/mL (≈ 0.389 µM). Besides, in data set [1], the hemolysis at 1 h, 400 ug/ml was under 10%.

Regarding `CC(=O)N[C@H](Cc1c(F)c(F)c(F)c(F)c1F)C(=O)N[C@@H](CCN)C(=O)N[C@H](C(=O)N[C@@H](CCN)C(=O)N[C@H]1CCNC(=O)[C@H]([C@@H](C)O)NC(=O)[C@H](CCN)NC(=O)[C@H](CCN)NC(=O)[C@H](CC(C)C)NC(=O)[C@@H](Cc2ccccc2)NC(=O)[C@@H](CCN)NC1=O)[C@H](C)O`, the MIC is under 0.125 µg/mL in the data set with Escherichia coli [3], 8 µg/mL (≈ 5.96 µM) in the data set with Escherichia coli [4], 8 µg/mL (≈ 5.96 µM) in the data set with Klebsiella pneumoniae and 0.25 µg/mL (≈ 0.186 µM) with Pseudomonas aeruginosa [5]. For the same compound, the hemolysis at 1 h, 400 ug/ml in data set [1] is under 10%.

For the compound `CC(=O)N[C@H](Cc1ccc(Br)cc1)C(=O)N[C@@H](CCN)C(=O)N[C@H](C(=O)N[C@@H](CCN)C(=O)N[C@H]1CCNC(=O)[C@H]([C@@H](C)O)NC(=O)[C@H](CCN)NC(=O)[C@H](CCN)NC(=O)[C@H](CC(C)C)NC(=O)[C@@H](Cc2ccccc2)NC(=O)[C@@H](CCN)NC1=O)[C@H](C)O`, the MIC was determined as 0.06 µg/mL (≈ 0.0451 µM) in the data set with Escherichia coli [3], 8 µg/mL (≈ 6.01 µM) with Klebsiella pneumoniae, 16 µg/mL (≈ 12 µM) with Pseudomonas aeruginosa [6] and 0.125 µg/mL (≈ 0.0939 µM) in the data set with Pseudomonas aeruginosa [5]. Besides, in data set [1], the hemolysis at 1 h, 400 ug/ml was under 10%.

On to `CC(=O)N[C@H](Cc1ccc(C(F)(F)F)cc1)C(=O)N[C@@H](CCN)C(=O)N[C@H](C(=O)N[C@@H](CCN)C(=O)N[C@H]1CCNC(=O)[C@H]([C@@H](C)O)NC(=O)[C@H](CCN)NC(=O)[C@H](CCN)NC(=O)[C@H](CC(C)C)NC(=O)[C@@H](Cc2ccccc2)NC(=O)[C@@H](CCN)NC1=O)[C@H](C)O`, for which the minimal inhibitory concentration (MIC) was found to be 4 µg/mL (≈ 3.03 µM) in the data set with Escherichia coli [4]; 8 µg/mL (≈ 6.06 µM) with Klebsiella pneumoniae; 32 µg/mL (≈ 24.2 µM) in the data set with Pseudomonas aeruginosa [6]; 0.25 µg/mL (≈ 0.189 µM) in the data set on Pseudomonas aeruginosa [5]; 0.5 µg/mL (≈ 0.379 µM) in the data set on Acinetobacter baumannii [2]. Also, the hemolysis at 1 h, 400 ug/ml in data set [1] was under 10%.

Turning to `CCCCCCCC(=O)N[C@@H](CCN)C(=O)N[C@H](C(=O)N[C@@H](CCN)C(=O)N[C@H]1CCNC(=O)[C@H]([C@@H](C)O)NC(=O)[C@H](CCN)NC(=O)[C@H](CCN)NC(=O)[C@H](Cc2ccccc2)NC(=O)[C@@H](CCC(C)C)NC(=O)[C@H](CCN)NC1=O)[C@@H](C)O` (Octanoyl-[Dab]T[Dab][Dab][Dab][d(hLeu)]F[Dab][Dab]T; lactam 4-C), the MIC in the data set on Escherichia coli [3] was under 0.125 µg/mL; in the data set on Klebsiella pneumoniae it was 0.5 µg/mL (≈ 0.415 µM); in the data set with Pseudomonas aeruginosa [6], 0.23 µg/mL (≈ 0.191 µM); in the data set on Acinetobacter baumannii [7], 1 µg/mL (≈ 0.831 µM); in the data set with Acinetobacter baumannii [2], under 0.125 µg/mL.

Take `CCCCCCCC(=O)N[C@@H](CCN)C(=O)N[C@H](C(=O)N[C@@H](CCN)C(=O)N[C@H]1CCNC(=O)[C@H]([C@@H](C)O)NC(=O)[C@H](CCN)NC(=O)[C@H](CCN)NC(=O)[C@H](Cc2ccccc2)NC(=O)[C@@H](CCc2ccccc2)NC(=O)[C@H](CCN)NC1=O)[C@@H](C)O` (Octanoyl-[Dab]T[Dab][Dab][Dab][d(hPhe)]F[Dab][Dab]T; lactam 4-C): the MIC was determined as 0.5 µg/mL (≈ 0.404 µM) in the data set on Escherichia coli [3]; 2 µg/mL (≈ 1.62 µM) with Escherichia coli [4]; 2 µg/mL (≈ 1.62 µM) in the data set on Klebsiella pneumoniae; 0.25 µg/mL (≈ 0.202 µM) in the data set with Pseudomonas aeruginosa [6]; 1 µg/mL (≈ 0.808 µM) in the data set with Acinetobacter baumannii [7]; 0.25 µg/mL (≈ 0.202 µM) with Pseudomonas aeruginosa [5]. For the same compound, the MIC in the data set on Acinetobacter baumannii [2] is 0.125 µg/mL (≈ 0.101 µM).

Take `CCCCCCCC(=O)N[C@@H](CCN)C(=O)N[C@H](C(=O)N[C@@H](CCN)C(=O)N[C@H]1CCNC(=O)[C@H]([C@@H](C)O)NC(=O)[C@H](CCN)NC(=O)[C@H](CCN)NC(=O)[C@H](Cc2ccccc2)NC(=O)[C@@H](CCCc2ccccc2)NC(=O)[C@H](CCN)NC1=O)[C@@H](C)O` (Octanoyl-[Dab]T[Dab][Dab][Dab][d(hhPhe)]F[Dab][Dab]T; lactam 4-C): the minimal inhibitory concentration (MIC) stood at 0.25 µg/mL (≈ 0.2 µM) with Escherichia coli [3], 2 µg/mL (≈ 1.6 µM) in the data set on Escherichia coli [4], 0.5 µg/mL (≈ 0.4 µM) in the data set with Pseudomonas aeruginosa [6] and 1 µg/mL (≈ 0.799 µM) in the data set with Acinetobacter baumannii [7].

The term MIC denotes the lowest concentration that inhibits growth of the organism.
